Laboratory results taken from patent US20250171459A1, “2-METHYL-4',5'-DIHYDROSPIRO[PIPERIDINE-4,7'-THIENO[2,3-C]PYRAN] DERIVATIVES AS INHIBITORS OF APOL1 AND METHODS OF USING SAME” (Vertex Pharmaceuticals Incorporated, priority 2022, published 2025).

The compounds below were run against T1, APOL1 (Homo sapiens, UniProt O14791) (assay: MultiTox-Fluor Multiplex Cytotoxicity Assay in tet-inducible APOL1 T-REx-HEK293 cells (cell rescue, ratio of dead to live cells)). Conditions: tet-inducible transgenic APOL1 T-REx-HEK293 cell lines, 50 ng/mL tet, 24 hours; read-out: IP50 (i.e., IC50 for cell proliferation).
T1 sequence (O14791 1-398 S342G/I384M): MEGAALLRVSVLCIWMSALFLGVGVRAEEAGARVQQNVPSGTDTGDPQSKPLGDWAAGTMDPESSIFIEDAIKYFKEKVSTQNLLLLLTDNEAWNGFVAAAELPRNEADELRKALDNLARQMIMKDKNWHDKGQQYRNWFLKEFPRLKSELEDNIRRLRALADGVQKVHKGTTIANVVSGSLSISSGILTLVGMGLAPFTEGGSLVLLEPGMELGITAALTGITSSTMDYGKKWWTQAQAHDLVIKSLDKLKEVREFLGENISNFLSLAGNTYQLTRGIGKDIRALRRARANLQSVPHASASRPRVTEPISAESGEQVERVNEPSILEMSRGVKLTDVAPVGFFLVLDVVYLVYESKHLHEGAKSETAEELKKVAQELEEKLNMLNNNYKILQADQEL
Format: cell-based
Summary of the method: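 T-REx-HEK293 cells with tet-inducible APOL1 were treated with compound (10 μM top, 10-point 3-fold dilution, duplicate) plus 50 ng/mL tetracycline for 24 h at 37° C, in DMEM with 2% tet-free FBS. MultiTox-Fluor protease signals gave a dead/live ratio, normalized to no tet (100% viability) and tet alone (0%).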

Structure (SMILES)	IC50 [µM]
CCc1cc2c(s1)CCO[C@@]21CCN(C[C@H]2C[C@@H](NC(=O)[C@H]3C[C@@H]3C(F)F)C2)[C@@H](C)C1 [Compound 305]	< 0.1
CCc1cc2c(s1)CCO[C@@]21CCN(C[C@H]2C[C@@H](NS(=O)(=O)Cc3cccc(C)c3)C2)[C@@H](C)C1 [Compound 393]	< 0.1
C[C@H]1C[C@@]2(CCN1Cc1cnn(CC(=O)N(C)C)c1)OCCc1c2sc(C(F)(F)F)c1CO [Compound 897]	< 0.1
C[C@H]1C[C@@]2(CCN1Cc1cnn(CC(O)C(N)=O)c1)OCCc1c2sc(C(F)(F)F)c1CO (some centres unmarked) [Compound 932]	< 0.1
CCc1cc2c(s1)CCO[C@@]21CCN(CC(O)CO)[C@@H](C)C1 (some centres unmarked) [Compound 282]	0.5 to 1
CCc1cc2c(s1)CCO[C@@]21CCN(Cc2cnc(N[C@H]3CCNC3=O)nc2)[C@@H](C)C1 [Compound 207]	< 0.1
CCc1cc2c(s1)CCO[C@@]21CCN(Cc2cn(Cc3cnco3)nn2)[C@@H](C)C1 [Compound 34]	< 0.1
CCc1cc2c(s1)CCO[C@@]21CCN(Cc2cn(Cc3ccnnc3)nn2)[C@@H](C)C1 [Compound 41]	< 0.1
CCc1cc2c(s1)CCO[C@@]21CCN(Cc2cn(CC(C)n3cncn3)nn2)[C@@H](C)C1 (some centres unmarked) [Compound 58]	0.1 to 0.5
CCc1cc2c(s1)CCO[C@@]21CCN(Cc2cn(CCSCC(C)(C)O)nn2)[C@@H](C)C1 [Compound 24]	< 0.1
CCc1cc2c(s1)CCOC21CCN(Cc2cn(CC3CCOCC3)nn2)CC1 [Compound 1113]	0.5 to 1
CCc1cc2c(s1)CCO[C@@]21CCN(Cc2cn(C(C)(C)C(=O)N3CCOCC3)nn2)[C@@H](C)C1 [Compound 164]	0.5 to 1
CCc1cc2c(s1)CCO[C@@]21CCN(C[C@H]2C[C@@H](NC(=O)c3ncccc3O)C2)[C@@H](C)C1 [Compound 345]	0.1 to 0.5
Cc1cc2c(s1)[C@]1(CCN(Cc3cnn(CC(C)(CO)CO)c3)[C@@H](C)C1)OCC2 [Compound 1028, 2-[[4-[[(2′S, 7R)-2,2′-dimethylspiro[4,5-dihydrothieno[2,3-c]pyran-7,4′-piperidine]-1′-yl]methyl]pyrazol-1-yl]methyl]-2-methyl-propane-1,3-diol]	< 0.1
C[C@H]1C[C@@]2(CCN1Cc1cnn(CC(O)CC(F)(F)F)c1)OCCc1c2sc(C(F)(F)F)c1CO (some centres unmarked) [Compound 892]	< 0.1
CCc1cc2c(s1)CCO[C@@]21CCN(C[C@H]2C[C@@H](NS(=O)(=O)c3ccccc3OC)C2)[C@@H](C)C1 [Compound 404]	< 0.1
CCc1cc2c(s1)CCO[C@@]21CCN(Cc2cn(C3CCCN(S(C)(=O)=O)C3)nn2)[C@@H](C)C1 (some centres unmarked) [Compound 28]	0.1 to 0.5
CCc1cc2c(s1)CCO[C@@]21CCN(CC2CN(C(=O)c3cn[nH]c3)C2)[C@@H](C)C1 [Compound 433]	< 0.1
C[C@H]1C[C@@]2(CCN1C[C@H]1C[C@@H](NS(=O)(=O)CC#N)C1)OCCc1cc(CC(F)F)sc12 [Compound 549, 1-cyano-N-((1R,3s)-3-(((2S,4R)-2′-(2,2-difluoroethyl)-2-methyl-4′,5′-dihydrospiro[piperidine-4,7′-thieno[2,3-c]pyran]-1-yl)methyl)cyclobutyl)methanesulfonamide]	< 0.1

Structure (SMILES)	IC50 [µM]
C[C@H]1C[C@@]2(CCN1Cc1cn(C3CCOCC3)nn1)OCCc1cc(CC(F)F)sc12 [Compound 547]	< 0.1
C[C@H]1C[C@@]2(CCN1Cc1ncccc1F)OCCc1cc(Cl)sc12 [Compound 684]	0.5 to 1
C[C@H]1C[C@@]2(CCN1Cc1cccn(C)c1=O)OCCc1cc(CC(F)F)sc12 [Compound 574]	0.5 to 1
C[C@H]1C[C@@]2(CCN1Cc1cnn(CCS(C)(=O)=O)c1)OCCc1c2sc(C(F)F)c1CO [Compound 764, [(2′S, 7R)-2-(difluoromethyl)-2′-methyl-1′-[[1-(2-methylsulfonylethyl)pyrazol-4-yl]methyl]spiro[4,5-dihydrothieno[2,3-c]pyran-7,4′-piperidine]-3-yl]methanol]	< 0.1
CCc1cc2c(s1)CCOC21CCN(Cc2ccc(NCC3CCOCC3)nc2)CC1 [Compound 1068]	< 0.1
CCc1cc2c(s1)CCO[C@@]21CCN(C[C@H]2C[C@@H](NS(=O)(=O)CC#N)C2)[C@@H](C)C1 [Compound 389]	< 0.1
CCc1cc2c(s1)CCO[C@@]21CCN(Cc2cnc(NCCN3CCNC3=O)nc2)[C@@H](C)C1 [Compound 221]	< 0.1
C[C@H]1C[C@@]2(CCN1Cc1cnn(Cc3ccc(F)cc3)c1)OCCc1cc(Cl)sc12 [Compound 707]	< 0.1
CCOCCC(O)Cn1cc(CN2CC[C@]3(C[C@@H]2C)OCCc2c3sc(C(F)(F)F)c2CO)cn1 (some centres unmarked) [Compound 957]	< 0.1
CCc1cc2c(s1)CCO[C@@]21CCN(C[C@H]2C[C@@H](NC(=O)OC(C)C)C2)[C@@H](C)C1 [Compound 376]	< 0.1
CCc1cc2c(s1)CCO[C@@]21CCN(Cc2cn(CCc3cn(C)cn3)nn2)[C@@H](C)C1 [Compound 36]	0.1 to 0.5
COc1cccc(CN2CC[C@]3(C[C@@H]2C)OCCc2cc(Cl)sc23)n1 [Compound 689]	0.5 to 1
C[C@H]1C[C@@]2(CCN1Cc1cnn(CCS(C)(=O)=O)c1)OCCc1cc(CC(F)(F)F)sc12 [Compound 1032, (2′S, 7R)-2′-methyl-1′-[[1-(2-methylsulfonylethyl)pyrazol-4-yl]methyl]-2-(2,2,2-trifluoroethyl)spiro[4,5-dihydrothieno[2,3-c]pyran-7,4′-piperidine]]	< 0.1
CCc1cc2c(s1)CCO[C@@]21CCN(Cc2cnn(C)c2)[C@@H](C)C1 [Compound 267]	< 0.1
Cc1cc2c(s1)CCO[C@@]21CCN(CC(O)C(N)=O)[C@@H](C)C1 (some centres unmarked) [Compound 503]	0.1 to 0.5
CCc1cc2c(s1)CCO[C@@]21CCN(CC2CN(C(=O)CCS(C)(=O)=O)C2)[C@@H](C)C1 [Compound 454]	0.1 to 0.5
CCc1cc2c(s1)CCOC21CCN(Cc2cn(CC(O)C(C)(C)O)nn2)C(C)C1 (centres unmarked) [Compound 124]	< 0.1
COc1ccc(CN2CC[C@]3(C[C@@H]2C)OC[C@H](O)c2cc(Cl)sc23)cc1OCC(N)=O [Compound 772]	< 0.1
CCc1cc2c(s1)CCOC21CCN(Cc2cn(C)nn2)CC1 [Compound 1158]	0.5 to 1

Structure (SMILES)	IC50 [µM]
CCc1cc2c(s1)CCO[C@@]21CCN(C[C@H]2C[C@@H](NC(=O)Oc3ccc(F)cc3)C2)[C@@H](C)C1 [Compound 377]	< 0.1
Cc1cc(CN2CC[C@]3(C[C@@H]2C)OCCc2cc(CC(F)F)sc23)no1 [Compound 584]	< 0.1
C[C@H]1C[C@@]2(CCN1Cc1cnn(CC(O)CC3(O)CCOC3)c1)OCCc1c2sc(C(F)(F)F)c1CO (some centres unmarked) [Compound 942]	< 0.1
C[C@H]1C[C@@]2(CCN1Cc1cnn(C)c1)OCC(O)c1cc(Cl)sc12 (mixture of isomers) [Compound 818]	< 0.1
CCc1cc2c(s1)CCOC21CCN(Cc2ccc3[nH]ncc3c2)CC1 [Compound 1128]	< 0.1
CCc1cc2c(s1)CCO[C@@]21CCN(Cc2cn(Cc3c(CO)cnc(C)c3O)nn2)[C@@H](C)C1 [Compound 39]	0.1 to 0.5
C[C@H]1C[C@@]2(CCN1Cc1cnn(CCS(C)(=O)=O)c1)OCCc1sc(CC(F)F)cc12 [Compound 523, (2′S,4R)-2-(2,2-difluoroethyl)-2′-methyl-1′-[[1-(2-methylsulfonylethyl)pyrazol-4-yl]methyl]spiro[6,7-dihydrothieno[3,2-c]pyran-4,4′-piperidine]]	< 0.1
C[C@H]1C[C@@]2(CCN1Cc1cnn(CC(O)C3(O)CCCC3)c1)OCCc1c2sc(C(F)(F)F)c1CO (some centres unmarked) [Compound 955]	< 0.1
C[C@H]1C[C@@]2(CCN1CCCn1cccn1)OCCc1cc(Cl)sc12 [Compound 642]	0.5 to 1
CCc1cc2c(s1)CCOC21CCN(Cc2cn(CC(O)C(C)(C)O)nn2)C(C)C1 (centres unmarked) [Compound 125]	< 0.1
CCc1cc2c(s1)CCO[C@@]21CCN(Cc2cnc(OCC(C)(C)N)nc2)[C@@H](C)C1 [Compound 208]	< 0.1
C[C@H]1C[C@@]2(CCN1Cc1cnn(CC(C)(O)C(=O)NC3CC3)c1)OCCc1c2sc(C(F)(F)F)c1CO (stereo partly drawn) [Compound 991, N-cyclopropyl-2-hydroxy-3-[4-[[(2′S, 7R)-3-(hydroxymethyl)-2′-methyl-2-(trifluoromethyl)spiro[4,5-dihydrothieno[2,3-c]pyran-7,4′-piperidine]-1′-yl]methyl]pyrazol-1-yl]-2-methyl-propanamide]	< 0.1
C[C@H]1C[C@@]2(CCN1Cc1ccncc1)OCCc1cc(Cl)sc12 [Compound 645]	0.1 to 0.5
Cc1sc2c(c1CO)CCO[C@@]21CCN(Cc2cnn(CCS(C)(=O)=O)c2)[C@@H](C)C1 [Compound 765, [(2′S, 7R)-2,2′-dimethyl-1′-[[1-(2-methylsulfonylethyl)pyrazol-4-yl]methyl]spiro[4,5-dihydrothieno[2,3-c]pyran-7,4′-piperidine]-3-yl]methanol]	< 0.1
Cc1cc2c(s1)CCO[C@@]21CCN(C2CCCC2O)[C@@H](C)C1 (some centres unmarked) [Compound 505]	< 0.1
CCc1cc2c(s1)CCOC21CCN(Cc2cn(C3CS(=O)(=O)C3)nn2)CC1 [Compound 1183]	0.5 to 1
Cc1cc2c(s1)CCO[C@@]21CCN(Cc2cnn(CCS(C)(=O)=O)c2)[C@H](C)C1 [Compound 517]	0.1 to 0.5
COc1ncc(CN2CC[C@]3(C[C@@H]2C)OCCc2cc(Cl)sc23)cn1 [Compound 651]	< 0.1
